Results taken from patent US11866457B2, “Clearing agent” (SAVID THERAPEUTICS INC., priority 2016, dated 2024).

Columns and labels:
Cupid [1] = molecular target: T1, Cupid (Streptomyces avidinii, UniProt P22629, Y46S/N47D/S51D/S69N/N73G/Y107S/R108K/E125D/R127K/E140N); assay: Affinity to Cupid, SPR kinetics analysis (Biacore T200, Single Cycle Kinetics, CEA-Cupid immobilized); format: binding; details: for ka / kd: Bivalent Analyte fit
T1 construct: fused on or other part: Anti-CEACAM5 scFv antibody ST03 fused to Cupid as the molecular probe (ST03-Cupid = anti-CEA-Cupid = 'CEA-Cupid'); 6xHis tag at the C-terminus
Protocol: (§1) In order to examine the affinity of Zephyr1 and Zephyr2 to Cupid, kinetics analysis was carried out using SPR (Biacore T200). Specifically, using Amin Coupling Kit (GE Healthcare), CEA-Cupid serving as a ligand was immobilized on Sensor Chip CM5 (GE Healthcare), targeting 5000RU. Thereafter, using 5 two-fold serial dilutions (from 10 nM) of Zephyr1 or Zephyr2 serving as an analyte, kinetics analysis was carried out according to a Single Cycle Kinetics method. Thereafter, using Biacore T200 Evaluation Software, version 2.0 (GE Healthcare), the obtained data were fitted at a Bivalent Analyte mode, and kinetic parameters were calculated. As a result, Zephyr1: ka=3.792E+4, kd=4.42E−6 (FIG. 3A); and Zephyr2: ka=1.578E+7, kd=0.09339 (FIG. 3B).

Cupid [2] = molecular target: T2, Cupid (Streptomyces avidinii, UniProt P22629, E125D/E140N/N47D/N73G/R108K/R127K/S51D/S69N/Y107S/Y46S); assay: as above; format: binding
T2 construct: fused on or other part: Anti-CEACAM5 scFv antibody ST03 fused to Cupid as the molecular probe (ST03-Cupid = anti-CEA-Cupid = 'CEA-Cupid'); 6xHis tag at the C-terminus
Protocol: as §1

[^125I]ST03-Cupid = In vivo test of clearing agent: change in blood radioactivity concentration of [^125I]ST03-Cupid in mice; details: mouse blood
Protocol: In order to examine the efficacy of Compound 14 (Zephyr1), ^125I-labeled ST03-Cupid ([^125I]ST03-Cupid) was administered to male mice via single intravenous administration, and the blood was then collected over time, so that a change in the blood radioactivity concentration caused by administration of Compound 14 was measured. Specifically, four experimental groups were prepared. In a first group, Compound 14 was administered to the mice via single intravenous administration, 6 hours after administration of [^125I]ST03-Cupid. A second group was defined as a control group for the first group, and a normal saline was administered to the mice, instead of Compound 14. In a third group, Compound 14 was administered to the mice via single intravenous administration, 24 hours after administration of [^125I]ST03-Cupid. A fourth group was defined as a control group for the third group, and a normal saline was administered to the mice, instead of Compound 14.
Specifically, with regard to administration of [^125I]ST03-Cupid to the mice, 100 μL of [^125I]ST03-Cupid was administered in a concentration of 50 kBq/100 μL to the mice via single intravenous administration ([…]/50 kBq/100 μL injection). Thereafter, 6 hours or 24 hours after administration of [^125I]ST03-Cupid, Compound 14 was administered to the mice in an amount of 2 times the number of moles of the administered ST03-Cupid ([…]/100 μL injection), or 100 μL of a normal saline was administered to the mice. It is to be noted that the experiments were carried out using the mice groups (n=4 to 6 in each group).
The blood was collected from the orbital vein of the mice over time. When Compound 14 was administered to the mice 6 hours after administration of [^125I]ST03-Cupid, blood collection was carried out with the following time intervals: first blood collection—10 minutes after administration of [^125I]ST03-Cupid, second blood collection—6 hours after administration of [^125]ST03-Cupid, third blood collection—10 minutes after administration of Saline or Compound 14, fourth blood collection—1 hour after administration of Saline or Compound 14, fifth blood collection—3 hours after administration of Saline or Compound 14, sixth blood collection—18 hours after administration of Saline or Compound 14, and seventh blood collection—24 hours after administration of Saline or Compound 14. Likewise, when Compound 14 was administered to the mice 24 hours after administration of [^125I]ST03-Cupid, blood collection was carried out with the following time intervals: first blood collection—10 minutes after administration of [^125]ST03-Cupid, second blood collection—24 hours after administration of [^125I]ST03-Cupid, third blood collection—10 minutes after administration of Saline or Compound 14, fourth blood collection—1 hour after administration of Saline or Compound 14, fifth blood collection—3 hours after administration of Saline or Compound 14, sixth blood collection—6 hours after administration of Saline or Compound 14, and seventh blood collection—24 hours after administration of Saline or Compound 14. The collected blood (40 to 50 μL) was measured using a gamma counter. The counting rate (dmp) measured with the gamma counter was divided by the amount of blood collected (g) to calculate a counting rate (dpm/g of blood) per unit weight, and the results were shown in a graph. Likewise, the counting rate (dmp) measured with the gamma counter was divided by the counting rate of [^125I]ST03-Cupid before administration, so as to calculate the remaining percentage (% ID/g of blood) in the dose after the administration. The results were shown in a graph. The measurement results are shown in Tables 1 and 2 and FIGS. 1 and 2.

CEA-Cupid = assay: Clearance of Cupid by Zephyr2 in vivo, xenograft mouse models, blood radioactivity of Psyche-B-DOTA(^111In); details: Zephyr2 20 hours after CEA-Cupid; Psyche-B-DOTA(111In) two hours later; blood collected 4 hours after labeling substance
Protocol: A 100 mM acetate buffer was added to ^111InCl3 solution 37 MBq (approx. […]) in the same volume as the ^111InCl3 solution, and the pH of the mixed solution was then adjusted to pH 4 to 5. Psyche-B-DOTA was added to the mixed solution at a molar ratio of 1000 times (10 nmol), such that the concentration of DMSO became 0.2% or more. The thus obtained mixture was heated at 80° C. for 15 minutes or more. Thereafter, the reaction mixture was analyzed according to HPLC, and the radiochemical purity was confirmed. The mixture was diluted with a 10 mM acetate buffer to a concentration of 1 nmol/mL, and the obtained solution was used as an administration solution.
Whether or not Cupid existing in the blood of a living body is cleared by Zephyr2 was examined by performing an experiment using xenograft mouse models. The experiment was carried out using three mice from a Zephyr2 administration group and three mice from a non-administration group (control group). Specifically, […] CEA-Cupid was administered to the xenograft mouse models, and 20 hours after the administration of CEA-Cupid, 100 μmol Zephyr2 was administered (the control group was untreated). […] Subsequently, 4 hours after the administration of the labeling substance, the blood was collected, and the amount of radioactivity therein was then measured using a gamma counter. […]

[3] = CA given 6 hr after [125I]ST03-Cupid, time 0.17 hr (before CA)
[4] = CA given 6 hr after [125I]ST03-Cupid, time 5.92 hr (before CA)
[5] = CA given 6 hr after [125I]ST03-Cupid, time 6.17 hr
[6] = CA given 6 hr after [125I]ST03-Cupid, time 7 hr
[7] = CA given 6 hr after [125I]ST03-Cupid, time 9 hr
[8] = CA given 6 hr after [125I]ST03-Cupid, time 24 hr
[9] = CA given 6 hr after [125I]ST03-Cupid, time 30 hr
[10] = CA given 24 hr after [125I]ST03-Cupid, time 0.17 hr (before CA)
[11] = CA given 24 hr after [125I]ST03-Cupid, time 23.92 hr (before CA)
[12] = CA given 24 hr after [125I]ST03-Cupid, time 24.17 hr
[13] = CA given 24 hr after [125I]ST03-Cupid, time 25 hr
[14] = CA given 24 hr after [125I]ST03-Cupid, time 27 hr
[15] = CA given 24 hr after [125I]ST03-Cupid, time 30 hr
[16] = CA given 24 hr after [125I]ST03-Cupid, time 48 hr

T1 sequence (P22629 whole entry Y46S/N47D/S51D/S69N/N73G/Y107S/R108K/E125D/R127K/E140N, looked up, the tested form may be a part): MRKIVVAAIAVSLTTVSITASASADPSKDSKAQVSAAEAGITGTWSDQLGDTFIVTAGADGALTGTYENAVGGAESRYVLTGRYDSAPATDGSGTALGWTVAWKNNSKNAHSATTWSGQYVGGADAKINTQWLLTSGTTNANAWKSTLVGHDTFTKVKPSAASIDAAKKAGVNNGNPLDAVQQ
T2 sequence (P22629 whole entry E125D/E140N/N47D/N73G/R108K/R127K/S51D/S69N/Y107S/Y46S, looked up, the tested form may be a part): as the sequence (P22629 whole entry Y46S/N47D/S51D/S69N/N73G/Y107S/R108K/E125D/R127K/E140N, looked up, the tested form may be a part) above

CC(=O)NC1C(SCCC(=O)NCCOCCOCCNC(=O)CCC(CCC(=O)NCCOCCOCCNC(=O)CCSC2OC(CO)C(O)C(O)C2NC(C)=O)(CCC(=O)NCCOCCOCCNC(=O)CCSC2OC(CO)C(O)C(O)C2NC(C)=O)NC(=O)OCCOCCOCCn2cc(COCCNC(=O)c3cc(NC(=O)CCCCCNC(=O)CCCC[C@@H]4SC[C@@H]5NC(=N)N[C@@H]54)cc(NC(=O)CCCCCNC(=O)CCCC[C@@H]4SC[C@@H]5NC(=N)N[C@@H]54)c3)nn2)OC(CO)C(O)C1O (stereo partly drawn) [Compound 14]
ka (Cupid [1]; SPR): 3.792E+4
kd (Cupid [1]; SPR): 4.42E−6
Kd (Cupid [2]): 0.117 nM
% Injected Dose/g of blood ([^125I]ST03-Cupid; [3]): 31.7 ± 3.6 % Injected Dose/g of blood
Radioactivity concentration ([^125I]ST03-Cupid; [3]): 599504 ± 68046 dpm/g
% Injected Dose/g of blood ([^125I]ST03-Cupid; [4]): 16.6 ± 2.2 % Injected Dose/g of blood
Radioactivity concentration ([^125I]ST03-Cupid; [4]): 312854 ± 42382 dpm/g
% Injected Dose/g of blood ([^125I]ST03-Cupid; [5]): 6.2 ± 1.8 % Injected Dose/g of blood
Radioactivity concentration ([^125I]ST03-Cupid; [5]): 117840 ± 34798 dpm/g
% Injected Dose/g of blood ([^125I]ST03-Cupid; [6]): 4.8 ± 1.6 % Injected Dose/g of blood
Radioactivity concentration ([^125I]ST03-Cupid; [6]): 90787 ± 29628 dpm/g
% Injected Dose/g of blood ([^125I]ST03-Cupid; [7]): 4.4 ± 1.6 % Injected Dose/g of blood
Radioactivity concentration ([^125I]ST03-Cupid; [7]): 83236 ± 29606 dpm/g
% Injected Dose/g of blood ([^125I]ST03-Cupid; [8]): 2.4 ± 0.8 % Injected Dose/g of blood
Radioactivity concentration ([^125I]ST03-Cupid; [8]): 46178 ± 15340 dpm/g
% Injected Dose/g of blood ([^125I]ST03-Cupid; [9]): 2.0 ± 0.7 % Injected Dose/g of blood
Radioactivity concentration ([^125I]ST03-Cupid; [9]): 37023 ± 13443 dpm/g
% Injected Dose/g of blood ([^125I]ST03-Cupid; [10]): 33.8 ± 2.5 % Injected Dose/g of blood
Radioactivity concentration ([^125I]ST03-Cupid; [10]): 638296 ± 48098 dpm/g
% Injected Dose/g of blood ([^125I]ST03-Cupid; [11]): 6.2 ± 0.9 % Injected Dose/g of blood
Radioactivity concentration ([^125I]ST03-Cupid; [11]): 116201 ± 17325 dpm/g
% Injected Dose/g of blood ([^125I]ST03-Cupid; [12]): 0.4 ± 0.1 % Injected Dose/g of blood
Radioactivity concentration ([^125I]ST03-Cupid; [12]): 8368 ± 1872 dpm/g
% Injected Dose/g of blood ([^125I]ST03-Cupid; [13]): 0.4 ± 0.1 % Injected Dose/g of blood
Radioactivity concentration ([^125I]ST03-Cupid; [13]): 7381 ± 1798 dpm/g
% Injected Dose/g of blood ([^125I]ST03-Cupid; [14]): 0.6 ± 0.1 % Injected Dose/g of blood
Radioactivity concentration ([^125I]ST03-Cupid; [14]): 10748 ± 2533 dpm/g
% Injected Dose/g of blood ([^125I]ST03-Cupid; [15]): 0.6 ± 0.2 % Injected Dose/g of blood
Radioactivity concentration ([^125I]ST03-Cupid; [15]): 12088 ± 3191 dpm/g
% Injected Dose/g of blood ([^125I]ST03-Cupid; [16]): 0.5 ± 0.1 % Injected Dose/g of blood
Radioactivity concentration ([^125I]ST03-Cupid; [16]): 9001 ± 1942 dpm/g

COC(=O)C(CCCCNC(=O)c1cc(NC(=O)NCCOCCOCCNC(=O)CCc2cn(CCOCCOCCOC(=O)NC(CCC(=O)NCCOCCOCCNC(=O)CCSC3OC(CO)C(O)C(O)C3NC(C)=O)(CCC(=O)NCCOCCOCCNC(=O)CCSC3OC(CO)C(O)C(O)C3NC(C)=O)CCC(=O)NCCOCCOCCNC(=O)CCSC3OC(CO)C(O)C(O)C3NC(C)=O)nn2)cc(C(=O)NCCCCC(NC(=O)CCCCC2SCC3NC(=N)NC32)C(=O)OC)c1)NC(=O)CCCCC1SCC2NC(=N)NC21 (stereo not drawn) [Compound 25]
ka (Cupid [1]; SPR): 1.578E+7
kd (Cupid [1]; SPR): 0.09339
Kd (Cupid [1]; SPR, printed as KD=ka/kd): 5.88 nM
affinity to Cupid reduced in comparison to that of Zephyr1 (Cupid [1]; ratio of KD values): approximately one fiftieth
amount of radioactivity in blood (CEA-Cupid): 4.51 % ID/g
